IC50 data for 25 molecules are collected here from US20240217947A1, “Morpholinylquinazoline Compound, Pharmaceutical compositions thereof and Use Thereof” (SHANGHAI YINGLI PHARMACEUTICAL CO., LTD, priority 2022, published 2024).

What all share (assay type): biochemical
The target in experiment [1] is PI3Kδ (Homo sapiens, UniProt O00329). The experiment can be described thus: PI3Kδ enzyme activity inhibition IC50 evaluation assay (ADP-Glo Kinase Assay). As to conditions: ATP 25 μM, PIP2 50 μg/mL, 1 hour room temperature, read-out: PI3K-δ IC50. As for the experimental part:
(§1) Effec Example 1 IC50 evaluation assay for PI3Kα, PI3Kδ, PI3Kβ and PI3Kγ enzyme activity inhibition
(§2) The experiment was performed using the ADP-Glo Kinase Assay kit, following the instructions. The following buffer solutions were prepared: 50 mM HEPES, pH 7.5, 3 mM MgCl2, 1 mM EGTA, 100 mM NaCl, 0.03% CHAPS, 2 mM DTT. The test compound samples were dissolved in DMSO and added to the screening system at a certain starting concentration such as 10 μM, 3-fold dilution, while setting up both DMSO control and no kinase control. The optimal concentrations of PI3Kα, PI3Kδ, PI3Kβ and PI3Kγ enzymes, substrate (PIP2) and ATP were prepared in buffer. The enzyme reaction system included: buffer, ATP 25 μM, kinase substrate (PIP2, 50 μg/mL), kinases [PI3Kα (0.15 μg/mL), PI3Kδ (1.2 μg/mL), PI3Kβ (0.3 μg/mL) and PI3Kγ (2.5 μg/mL)], etc. The reaction system was reacted at room temperature for 1 hour. The reaction was terminated by adding a termination reagent (ADP-Glo reagent, 5 μL), and the ADP content in the system was detected using a detection reagent (Kinase Detection Reagent, 10 μL). Signal data were collected using the Envision instrument. Calculate the percentage of (%) inhibition according to the following formula: % inhibition=(DMSO control signal value−sample signal value)/(DMSO control signal value−no-kinase control signal value). The IC50 value was obtained by fitting the curve using the formula Y=Bottom+(Top-Bottom)/(1+(IC50/X)^HillSlope).

Experiment [2] concerns the target T1, HDAC6 (Homo sapiens, UniProt Q9UBN7).
T1 sequence (Q9UBN7 1-1215): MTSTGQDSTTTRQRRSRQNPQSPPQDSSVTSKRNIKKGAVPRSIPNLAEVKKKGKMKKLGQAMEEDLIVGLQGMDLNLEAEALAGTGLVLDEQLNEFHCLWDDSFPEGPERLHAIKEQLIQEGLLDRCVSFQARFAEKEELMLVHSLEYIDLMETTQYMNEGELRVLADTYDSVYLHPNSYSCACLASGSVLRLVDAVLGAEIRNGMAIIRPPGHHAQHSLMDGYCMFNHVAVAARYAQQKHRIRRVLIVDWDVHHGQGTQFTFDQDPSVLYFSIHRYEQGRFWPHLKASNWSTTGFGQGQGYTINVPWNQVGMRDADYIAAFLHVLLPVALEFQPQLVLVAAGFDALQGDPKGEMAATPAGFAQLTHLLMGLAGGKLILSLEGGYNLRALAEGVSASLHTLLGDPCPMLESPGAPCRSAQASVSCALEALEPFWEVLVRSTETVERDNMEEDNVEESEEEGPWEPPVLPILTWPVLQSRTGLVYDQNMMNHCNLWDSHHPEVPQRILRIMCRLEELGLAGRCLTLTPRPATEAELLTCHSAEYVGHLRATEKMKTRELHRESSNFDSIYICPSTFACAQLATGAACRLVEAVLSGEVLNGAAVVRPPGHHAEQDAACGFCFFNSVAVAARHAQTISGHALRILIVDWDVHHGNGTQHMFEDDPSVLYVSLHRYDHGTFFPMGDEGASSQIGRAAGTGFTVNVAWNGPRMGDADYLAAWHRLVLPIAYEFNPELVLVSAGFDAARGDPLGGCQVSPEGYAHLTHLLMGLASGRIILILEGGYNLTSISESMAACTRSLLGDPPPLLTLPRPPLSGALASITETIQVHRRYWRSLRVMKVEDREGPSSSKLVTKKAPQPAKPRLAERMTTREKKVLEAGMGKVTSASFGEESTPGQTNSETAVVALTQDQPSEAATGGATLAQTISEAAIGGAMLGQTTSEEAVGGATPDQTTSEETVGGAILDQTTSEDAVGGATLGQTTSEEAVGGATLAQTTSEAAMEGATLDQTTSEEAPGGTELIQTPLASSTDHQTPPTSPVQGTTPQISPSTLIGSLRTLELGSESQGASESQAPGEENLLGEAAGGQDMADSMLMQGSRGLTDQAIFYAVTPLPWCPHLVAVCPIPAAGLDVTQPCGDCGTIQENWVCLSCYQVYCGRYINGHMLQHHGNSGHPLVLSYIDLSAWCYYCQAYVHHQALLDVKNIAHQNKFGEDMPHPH
The experiment can be described thus: HDAC6 enzyme activity inhibition IC50 evaluation experiment. As to conditions: HDAC6 5 nM, acetylated peptide 11 μM, trypsin, fluorescence. As for the experimental part: Effect Example 2 HDAC1, HDAC2, HDAC3, HDAC6 enzyme activity inhibition IC50 evaluation experiment
Buffer solution (50 mM Tris 7.5, 0.01% Tween-20, 50 mM NaCl) was prepared according to the kit instructions, and the enzyme solution and substrate solution (acetylated peptide with the addition of trypsin) were prepared using the buffer solution. The test compound samples were dissolved with DMSO and added to the screening system at a certain starting concentration such as 10 μM, 3-fold dilution, while setting up a DMSO control and no-enzyme control. The enzyme reaction system includes: buffer, enzyme [final concentration: HDAC1=10 nM, HDAC2=4 nM, HDAC3=7 nM, HDAC6=5 nM], substrate (acetylated peptide) [final concentration: Peptide(HDAC1)=8 μM, Peptide(HDAC2)=10 μM, Peptide(HDAC3)=5 μM, Peptide(HDAC6)=11 μM], trypsin [final concentration: Trypsin(HDAC1,2,3)=0.05 μM, Trypsin(HDAC6)=0.1 μM], etc. The enzymes and compounds were reacted at room temperature for 15 min. After adding the substrate and Trypsin, centrifugation was performed for 1 min, and the fluorescence signal data (excitation wavelength 355 nM/emission wavelength 460 nm) was read continuously for 60 min using Envision, and the linear reaction segment was selected to obtain the slope and thus calculate the inhibition rate at that concentration. The IC50 value was obtained by fitting the curve using the formula Y=Bottom+(Top-Bottom)/(1+(IC50/X)^HillSlope).

Experiment [3] has as its target PI3Kα (Homo sapiens, UniProt P42336). The experiment can be described thus: PI3Kα enzyme activity inhibition IC50 evaluation assay (ADP-Glo Kinase Assay). As to conditions: ATP 25 μM, PIP2 50 μg/mL, 1 hour room temperature, read-out: PI3K-α IC50. As for the experimental part: as §1, §2

Chain of PI3Kα (P42336 whole entry, species assumed): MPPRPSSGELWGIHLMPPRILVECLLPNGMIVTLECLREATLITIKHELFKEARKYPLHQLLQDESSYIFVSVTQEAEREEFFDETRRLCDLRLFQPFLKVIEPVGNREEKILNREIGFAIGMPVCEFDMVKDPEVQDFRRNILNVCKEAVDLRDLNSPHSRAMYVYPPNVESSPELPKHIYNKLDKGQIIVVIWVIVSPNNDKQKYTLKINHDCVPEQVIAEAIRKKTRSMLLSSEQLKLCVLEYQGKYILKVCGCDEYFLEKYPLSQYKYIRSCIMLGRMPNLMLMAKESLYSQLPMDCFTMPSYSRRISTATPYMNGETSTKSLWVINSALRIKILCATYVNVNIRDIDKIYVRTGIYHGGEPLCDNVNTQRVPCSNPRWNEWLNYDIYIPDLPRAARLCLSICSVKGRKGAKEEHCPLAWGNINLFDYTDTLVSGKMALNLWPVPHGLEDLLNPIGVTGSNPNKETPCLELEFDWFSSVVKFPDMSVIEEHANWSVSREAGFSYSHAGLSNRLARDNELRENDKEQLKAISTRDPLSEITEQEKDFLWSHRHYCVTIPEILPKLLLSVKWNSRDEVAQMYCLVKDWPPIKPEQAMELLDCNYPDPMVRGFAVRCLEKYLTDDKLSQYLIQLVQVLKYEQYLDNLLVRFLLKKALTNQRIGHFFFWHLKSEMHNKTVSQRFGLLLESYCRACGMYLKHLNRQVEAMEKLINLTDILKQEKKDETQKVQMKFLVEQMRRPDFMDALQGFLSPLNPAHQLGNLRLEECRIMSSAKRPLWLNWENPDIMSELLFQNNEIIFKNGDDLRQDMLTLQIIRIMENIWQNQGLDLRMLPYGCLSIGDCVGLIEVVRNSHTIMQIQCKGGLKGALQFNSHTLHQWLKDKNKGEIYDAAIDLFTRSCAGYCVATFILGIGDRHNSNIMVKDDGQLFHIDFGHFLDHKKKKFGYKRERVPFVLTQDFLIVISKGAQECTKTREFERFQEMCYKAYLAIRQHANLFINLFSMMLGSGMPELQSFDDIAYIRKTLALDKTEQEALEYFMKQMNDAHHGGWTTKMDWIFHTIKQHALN
Chain of PI3Kα (P27986 whole entry partner, species assumed): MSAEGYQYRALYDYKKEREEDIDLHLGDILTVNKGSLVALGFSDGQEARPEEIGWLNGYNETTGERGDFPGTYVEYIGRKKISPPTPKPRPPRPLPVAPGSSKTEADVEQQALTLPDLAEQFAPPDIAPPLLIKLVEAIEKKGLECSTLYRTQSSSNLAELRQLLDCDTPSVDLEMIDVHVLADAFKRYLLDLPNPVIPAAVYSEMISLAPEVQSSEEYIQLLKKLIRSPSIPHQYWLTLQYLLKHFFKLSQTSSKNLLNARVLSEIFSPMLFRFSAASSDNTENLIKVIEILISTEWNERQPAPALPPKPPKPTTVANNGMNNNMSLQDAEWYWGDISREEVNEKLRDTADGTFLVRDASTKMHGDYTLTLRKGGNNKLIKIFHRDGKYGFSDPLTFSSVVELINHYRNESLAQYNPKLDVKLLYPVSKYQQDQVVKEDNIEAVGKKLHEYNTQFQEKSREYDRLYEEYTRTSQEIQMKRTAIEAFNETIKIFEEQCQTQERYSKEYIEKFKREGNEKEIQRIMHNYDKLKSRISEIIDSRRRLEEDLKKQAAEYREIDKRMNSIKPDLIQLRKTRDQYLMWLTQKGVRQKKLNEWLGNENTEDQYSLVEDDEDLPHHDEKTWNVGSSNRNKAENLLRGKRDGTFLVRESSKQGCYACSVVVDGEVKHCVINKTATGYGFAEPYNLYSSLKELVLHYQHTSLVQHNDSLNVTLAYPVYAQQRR
Chain of PI3Kδ (O00329 whole entry, species assumed): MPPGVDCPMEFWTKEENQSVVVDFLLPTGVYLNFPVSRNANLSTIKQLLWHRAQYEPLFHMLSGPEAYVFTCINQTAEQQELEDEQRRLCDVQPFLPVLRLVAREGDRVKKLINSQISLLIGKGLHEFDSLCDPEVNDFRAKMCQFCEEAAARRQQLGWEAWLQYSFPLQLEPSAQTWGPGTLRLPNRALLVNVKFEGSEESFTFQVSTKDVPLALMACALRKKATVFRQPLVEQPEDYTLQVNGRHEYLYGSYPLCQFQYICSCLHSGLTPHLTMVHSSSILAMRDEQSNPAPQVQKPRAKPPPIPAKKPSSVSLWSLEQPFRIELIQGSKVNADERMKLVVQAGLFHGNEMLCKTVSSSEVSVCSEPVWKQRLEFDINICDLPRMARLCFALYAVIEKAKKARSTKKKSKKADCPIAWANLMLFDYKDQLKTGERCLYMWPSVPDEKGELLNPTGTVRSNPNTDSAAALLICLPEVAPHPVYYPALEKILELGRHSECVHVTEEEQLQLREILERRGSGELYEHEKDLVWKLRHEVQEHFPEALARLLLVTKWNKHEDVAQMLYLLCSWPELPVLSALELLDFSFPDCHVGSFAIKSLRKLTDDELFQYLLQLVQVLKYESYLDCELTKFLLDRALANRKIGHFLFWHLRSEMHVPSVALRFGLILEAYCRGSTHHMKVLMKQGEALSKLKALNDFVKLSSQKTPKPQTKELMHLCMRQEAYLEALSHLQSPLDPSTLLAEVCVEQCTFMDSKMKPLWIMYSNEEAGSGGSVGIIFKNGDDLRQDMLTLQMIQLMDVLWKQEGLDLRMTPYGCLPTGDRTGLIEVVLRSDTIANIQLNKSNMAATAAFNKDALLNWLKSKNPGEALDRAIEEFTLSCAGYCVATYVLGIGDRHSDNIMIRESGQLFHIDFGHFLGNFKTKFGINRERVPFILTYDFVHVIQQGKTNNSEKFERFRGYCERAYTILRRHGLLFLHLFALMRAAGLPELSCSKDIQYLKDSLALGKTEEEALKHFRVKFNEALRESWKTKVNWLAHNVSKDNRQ
Chain of PI3Kδ (P27986 whole entry partner, species assumed): as the sequence (P27986 whole entry partner, species assumed) above

Consider `COc1ncc(-c2nc(N3CCOCC3)nc3c(O[C@H]4CC[C@H](N5CCC(C(=O)NO)CC5)CC4)cc(F)cc23)cc1NS(C)(=O)=O` [Compound 32], for which the half-inhibitory concentration (IC50) in experiment [1] was at most 0.01 µM; in experiment [2], 1 to 10 µM.
Turning to `COc1ncc(-c2nc(N3CCOCC3)nc3c(CN4CCC(CCCC(=O)NO)CC4)cc(F)cc23)cc1NS(=O)(=O)C1CC1` [Compound 25], the IC50 lay in the range of 0.01 to 0.1 µM in experiment [1], 1 to 10 µM in experiment [3] and 0.01 to 0.1 µM in experiment [2].
In the case of `COc1ncc(-c2nc(N3CCOCC3)nc3c(CN4CCC(c5ccc(C(=O)NO)cc5F)CC4)cc(F)cc23)cc1NS(C)(=O)=O` [Compound 17], the IC50 in experiment [1] was at most 0.01 µM; in experiment [3], 1 to 10 µM; in experiment [2], 0.01 to 0.1 µM.
Taken in the same sequence, the figures for `COc1ncc(-c2nc(N3CCOCC3)nc3c(CN4CCC(N5CCC(C(=O)NO)CC5)CC4)cc(F)cc23)cc1NS(C)(=O)=O` [Compound 14] were 0.01 to 0.1 µM, 1 to 10 µM and 1 to 10 µM.
As for `COc1ncc(-c2nc(N3CCOCC3)nc3c(OCc4ccc(C(=O)NO)cc4F)cc(F)cc23)cc1NS(C)(=O)=O` [Compound 38], the IC50 in experiment [1] was 0.01 to 0.1 µM.
Turning to `COc1ncc(-c2nc(N3CCOCC3)nc3c(CN4CCC(CCNC(=O)NO)CC4)cc(F)cc23)cc1NS(C)(=O)=O` [Compound 28], the IC50 in experiment [1] is at most 0.01 µM; in experiment [3], 0.1 to 1 µM; in experiment [2], over 10 µM.
For `COc1ncc(-c2nc(N3CCOCC3)nc3c(CN4CCN(c5ccc(C(=O)NO)cc5F)CC4)cc(F)cc23)cc1NS(C)(=O)=O` [Compound 34], the IC50 in experiment [1] and in experiment [2] was 0.01 to 0.1 µM throughout.
`COc1ncc(-c2nc(N3CCOCC3)nc3c(OC4CCN(Cc5ccc(C(=O)NO)cc5F)CC4)cc(F)cc23)cc1NS(C)(=O)=O` [Compound 33]: the IC50 in experiment [1] and in experiment [2] was 0.01 to 0.1 µM each time.
Turning to `COc1ncc(-c2nc(N3CCOCC3)nc3c(OCCc4ccc(C(=O)NO)cc4F)cc(F)cc23)cc1NS(C)(=O)=O` [Compound 37], the IC50 in experiment [1] was in the range of 0.1 to 1 µM.
`CS(=O)(=O)Nc1cncc(-c2nc(N3CCOCC3)nc3c(CN4CCC(CCCC(=O)NO)CC4)cc(F)cc23)c1` [Compound 24]: the IC50 is 0.01 to 0.1 µM in experiment [1], 1 to 10 µM in experiment [3] and 0.01 to 0.1 µM in experiment [2].
Regarding `COc1ncc(-c2nc(N3CCOCC3)nc3c(OC4CCN(c5ccc(C(=O)NO)cc5F)CC4)cc(F)cc23)cc1NS(C)(=O)=O` [Compound 31], the IC50 in experiment [1] and in experiment [2] was 0.01 to 0.1 µM throughout.
With `COc1ncc(-c2nc(N3CCOCC3)nc3c(CN4CCC(c5ccc(C(=O)NO)cc5F)CC4)cc(F)cc23)cc1NS(=O)(=O)C(F)(F)F` [Compound 29], the IC50 is at most 0.01 µM in experiment [1] and 0.1 to 1 µM in experiment [3].
`COc1ncc(-c2nc(N3CCOCC3)nc3c(CN4CCN(CCCCC(=O)NO)CC4)cc(F)cc23)cc1NS(C)(=O)=O` [Compound 6]: the IC50 in experiment [1] was at most 0.01 µM; in experiment [2], 0.1 to 1 µM.
With `COc1ncc(-c2nc(N3CCOCC3)nc3c(CN4CCC(c5ccc(C(=O)NO)c(F)c5)CC4)cc(F)cc23)cc1NS(C)(=O)=O` [Compound 18], the IC50 was at most 0.01 µM in experiment [1], 1 to 10 µM in experiment [3] and 0.1 to 1 µM in experiment [2].
With `O=C(CCCC1CCN(Cc2cc(F)cc3c(-c4cncc(NS(=O)(=O)C5CC5)c4)nc(N4CCOCC4)nc23)CC1)NO` [Compound 27], the IC50 was 0.01 to 0.1 µM in experiment [1] and 1 to 10 µM in experiment [3].
`COc1ncc(-c2nc(N3CCOCC3)nc3c(CN4CCC(OCCC(=O)NO)CC4)cc(F)cc23)cc1NS(C)(=O)=O` [Compound 11]: the IC50 in experiment [1] is at most 0.01 µM; in experiment [3], 1 to 10 µM; in experiment [2] it was 0.1 to 1 µM.
The corresponding values for `COc1ncc(-c2nc(N3CCOCC3)nc3c(OCCCCCC(=O)NO)cc(F)cc23)cc1NS(C)(=O)=O` [Compound 8] are 0.01 to 0.1 µM, 0.1 to 1 µM and at most 0.01 µM.
Taken in the same sequence, the figures for `COc1ncc(-c2nc(N3CCOCC3)nc3c(CN4CCC(c5cc(F)c(C(=O)NO)cc5F)CC4)cc(F)cc23)cc1NS(C)(=O)=O` [Compound 20] were at most 0.01 µM, 1 to 10 µM and 0.1 to 1 µM.
`COc1ncc(-c2nc(N3CCOCC3)nc3c(CN4CCC(/C=C/C(=O)NO)CC4)cc(F)cc23)cc1NS(C)(=O)=O` [Compound 5]: the values for the IC50 in experiment [1] and in experiment [2] were at most 0.01 µM and 0.1 to 1 µM, respectively.
Turning to `COc1ncc(-c2nc(N3CCOCC3)nc3c(CN4CC(OCCOCC(=O)NO)C4)cc(F)cc23)cc1NS(C)(=O)=O` [Compound 16], the IC50 in experiment [1] lay within 0.01 to 0.1 µM; in experiment [3], 0.1 to 1 µM; in experiment [2], 1 to 10 µM.
The corresponding values for `COc1ncc(-c2nc(N3CCOCC3)nc3c(CN4CCC(CCCC(=O)NO)CC4)cc(F)cc23)cc1NS(=O)(=O)C(F)(F)F` [Compound 26] are at most 0.01 µM, 0.1 to 1 µM and 0.01 to 0.1 µM.
Taken in the same sequence, the figures for `COc1ncc(-c2nc(N3CCOCC3)nc3c(CN4CCC(C(C)(C)OCC(=O)NO)CC4)cc(F)cc23)cc1NS(C)(=O)=O` [Compound 22] were at most 0.01 µM, 0.1 to 1 µM and 1 to 10 µM.
The corresponding values for `COc1ncc(-c2nc(N3CCOCC3)nc3c(CN4CCC(C(=O)NO)CC4)cc(F)cc23)cc1NS(C)(=O)=O` [Compound 1] are 0.01 to 0.1 µM, 1 to 10 µM and 1 to 10 µM.
On to `COc1ncc(-c2nc(N3CCOCC3)nc3c(CN4CCC(c5c(F)cc(C(=O)NO)cc5F)CC4)cc(F)cc23)cc1NS(C)(=O)=O` [Compound 19], for which the IC50 in experiment [1] is at most 0.01 µM; in experiment [3], 1 to 10 µM; in experiment [2], 0.1 to 1 µM.
Turning to `COc1ncc(-c2nc(N3CCOCC3)nc3c(CN4CCN(Cc5ccc(C(=O)NO)cc5)CC4)cc(F)cc23)cc1NS(C)(=O)=O` [Compound 10], the IC50 was at most 0.01 µM in experiment [1], 0.1 to 1 µM in experiment [3] and 0.01 to 0.1 µM in experiment [2].
